Experimental data: PubChem BioAssay (NCI)
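Growth conditions: 96-well plates. Treatment: test compound, 48 hours, 5 concentrations. Analysis: linear interpolation between bracketing concentrations; unreached endpoints set to highest concentration. Abbreviation: GI50, concentration required for 50% inhibition of growth. TGI: total growth inhibition.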

Tests used:
Assay in all cases: growth of human tumour cells (NCI), 48 h
[1] = tested on: COLO 205 colon
[2] = tested on: SF-539 CNS
[3] = tested on: EKVX NSCLC
[4] = tested on: OVCAR-8 ovarian
[5] = tested on: UACC-62 melanoma
[6] = tested on: 786-0 renal
[7] = tested on: IGROV1 ovarian
[8] = tested on: NCI/ADR-RES ovarian
[9] = tested on: MDA-MB-231 breast
[10] = tested on: T-47D breast

Row | SMILES | GI50 [1] | TGI [1] | GI50 [2] | TGI [2] | GI50 [3] | TGI [3] | GI50 [4] | TGI [4] | GI50 [5] | TGI [5] | GI50 [6] | TGI [6] | GI50 [7] | TGI [7] | TGI [8] | TGI [9] | GI50 [10] | TGI [10] | GI50 [8] | GI50 [9]
1 | C/C=C1/C(=C/c2[nH]c(/C=c3\[nH]/c(=C/C4=NC(=O)C(CC)=C4C)c(C)c3CCC(=O)O)c(CCC(=O)O)c2C)NC(=O)C1C (stereo not drawn) | > 150 µg/mL | > 150 µg/mL | > 150 µg/mL | > 150 µg/mL | > 150 µg/mL | > 150 µg/mL | > 150 µg/mL | > 150 µg/mL | > 150 µg/mL | > 150 µg/mL | > 150 µg/mL | > 150 µg/mL | > 150 µg/mL | > 150 µg/mL | – | – | – | – | – | –
2 | COc1cccc(/C=C2\C(=O)N(C(=O)c3ccc(NC(C)=O)cc3)N=C2C)c1 | – | > 100 µM | – | > 100 µM | – | > 100 µM | – | > 100 µM | – | – | – | > 100 µM | – | – | – | – | – | – | – | –
3 | N#CCc1ccc(C(C#N)/C(CCCC(=O)Nc2cccc([N+](=O)[O-])c2)=N/NC(N)=S)cc1 (stereo not drawn) | – | > 100 µM | – | > 100 µM | – | > 100 µM | – | – | – | > 100 µM | – | > 100 µM | – | > 100 µM | – | – | – | – | – | –
4 | COC(C(O)c1ccc2c(c1)OCO2)P(=O)(c1ccccc1)c1ccccc1 (stereo not drawn) | – | – | – | > 100 µM | – | > 100 µM | – | > 100 µM | – | > 100 µM | – | > 100 µM | – | > 100 µM | – | – | – | – | – | –
5 | CNc1nc(N)c(N=O)c(Nc2ccc(Br)cc2)n1 | – | > 100 µM | – | > 100 µM | – | > 100 µM | – | > 100 µM | – | > 100 µM | – | > 100 µM | – | > 100 µM | > 100 µM | > 100 µM | – | – | – | –
6 | COc1ccc(-c2nnc(COc3ccc(NC(=O)Nc4ccc(Cl)c(C(F)(F)F)c4)cc3F)o2)cc1 | 2020 nM | 5.06 µM | 5.01 µM | 19.6 µM | – | – | 3120 nM | 15.8 µM | 3.12 µM | 16.4 µM | 3240 nM | 12 µM | 4.77 µM | 26.4 µM | > 100 µM | 8.72 µM | 3020 nM | 14.5 µM | 3280 nM | 1910 nM
7 | CC(C)c1ccc(C(c2ccc(OCC(=O)O)cc2)c2ccc(C(C)C)cc(=O)c2O)c(O)c(=O)c1 | – | > 100 µM | – | 31.3 µM | – | > 100 µM | – | 58.3 µM | – | 20.7 µM | – | 22 µM | – | 21 µM | – | – | – | – | – | –
8 | N#C/C(=C\c1cc2ccccc2c2ccccc12)c1ccccc1 | – | 10.6 µM | – | 19.8 µM | – | 75.2 µM | – | > 100 µM | – | 28.9 µM | – | 18 µM | – | > 51.8 µM | – | – | – | – | – | –
9 | CCOc1ccc2c(c1)[n+]([O-])c(-c1nc3ccccc3s1)c(N)[n+]2[O-] | – | > 100 µM | – | > 100 µM | – | > 100 µM | – | > 100 µM | – | > 100 µM | – | > 100 µM | – | > 100 µM | – | – | – | – | – | –
10 | COc1ccc2c3c(coc13)C(CCC(=O)O)CC2 (stereo not drawn) | – | > 100 µM | – | > 100 µM | – | > 100 µM | – | > 100 µM | – | > 100 µM | – | > 100 µM | – | > 100 µM | – | – | – | – | – | –
11 | COC(=O)C12C3C4C1C1C2C3C41NC(=O)c1csc([C@@H](C[C@H](C(C)C)N(C)C(=O)[C@@H](NC(=O)[C@H]2CCCCN2C)C2CC2)OC(C)=O)n1 (stereo partly drawn) | 7.27 nM | 0.379 µM | 0.00574 µM | 0.11 µM | 80 nM | > 33.3 µM | 40.4 nM | > 33.3 µM | 0.00595 µM | > 33.3 µM | 88 nM | > 33.3 µM | 0.0226 µM | > 33.3 µM | > 33.3 µM | 10.9 µM | – | – | 2700 nM | 41.4 nM
12 | COc1ncc(-c2ccc3ncnc(Nc4cccc(Cl)c4)c3c2)cc1NS(=O)(=O)CCN1CCOCC1 | – | – | – | – | – | – | 700 nM | > 100 µM | – | – | 298 nM | > 100 µM | – | – | – | – | < 10 nM | 0.6 µM | – | –
13 | c1cc[c]([Pb]([c]2ccccc2)[c]2ccccc2)cc1 | 14800 nM | 30.3 µM | 14.2 µM | 43.2 µM | 25200 nM | 76.8 µM | 12400 nM | 72.5 µM | 6.1 µM | 19.8 µM | 11400 nM | 33.2 µM | 10 µM | 32 µM | – | – | – | – | – | –
14 | COc1ccc2nc3cc(Cl)ccc3c(NCCN)c2c1 | 1530 nM | 3.14 µM | – | – | – | – | – | – | – | – | 1630 nM | 3.05 µM | – | – | – | – | 1830 nM | 3.59 µM | – | –
15 | CC(=O)N1C/C(=C\c2ccc(N(C)C)cc2)C(=O)/C(=C/c2ccc(N(C)C)cc2)C1 | – | – | – | 52.2 µM | – | – | – | > 100 µM | – | > 100 µM | – | > 100 µM | – | > 100 µM | – | – | – | – | – | –
16 | COc1ccc(OC)c(C(=O)c2oc3ccc(Br)cc3c2N)c1 | 406 nM | 2.11 µM | 0.237 µM | 0.712 µM | – | – | 576 nM | 97.9 µM | 0.432 µM | 14.3 µM | 581 nM | 47.4 µM | 2.13 µM | > 87.4 µM | > 77.7 µM | 26.7 µM | 452 nM | > 67.6 µM | 341 nM | 847 nM
17 | CCC(=O)c1c(C(F)(F)F)n([O-])c2ccc(C)cc2[n+]1=O | 5240 nM | 19.6 µM | 9.19 µM | 25.3 µM | 1520 nM | 6.09 µM | 2830 nM | > 50 µM | 7.7 µM | 28.9 µM | 22000 nM | > 50 µM | – | – | 36.5 µM | 37.9 µM | 6510 nM | 26.8 µM | 6140 nM | 12100 nM
18 | COC1=CC2(C=CC1=O)c1cc(OC)c(OC)cc1CCN2C(=O)c1ccccc1 (stereo not drawn) | – | > 100 µM | – | > 100 µM | – | > 100 µM | – | > 100 µM | – | > 100 µM | – | > 100 µM | – | > 100 µM | – | – | – | – | – | –
19 | Cc1ccc2[nH]c(C(=O)NN3C(=O)C(C)SC34CCCC(C)C4)c(-c3ccccc3)c2c1 (stereo not drawn) | 94100 nM | > 100 µM | > 100 µM | > 100 µM | > 100000 nM | > 100 µM | 34500 nM | > 100 µM | 76.8 µM | > 100 µM | 58300 nM | > 100 µM | 59.1 µM | > 100 µM | – | > 100 µM | > 100000 nM | > 100 µM | – | > 100000 nM
20 | Cc1[nH]c2ccccc2c1C1Cc2ccccc2N1C(=O)/C(Cl)=C/c1ccccc1 (stereo not drawn) | – | > 100 µM | – | > 100 µM | – | > 100 µM | – | > 100 µM | – | > 100 µM | – | > 100 µM | – | > 100 µM | – | – | – | – | – | –
